Test results from patent US20250000869A1, “TOPICAL COMPOSITIONS OF 2-PHENYL-3, 4-DIHYDROPYRROLO [2, L-F] [1, 2, 4] TRIAZINONE DERIVATIVES AND USES THEREOF” (TOPADUR PHARMA AG, priority 2021, published 2025).

Tested on: uPAR−/− mice
Assay: Healing of full thickness excisional cutaneous wounds after topical, on wound administration
Format: in vivo
Source text: The urokinase-type plasminogen activator receptor deficient (uPAR−/−) mouse that reproduces cardinal features of SSc (dermal) vasculopathy and fibrosis is an animal model of systemic sclerosis that is considered as disease-relevant. The uPAR−/− mouse integrates apoptosis of dermal endothelial cells, a decreased density of dermal microvessels and endothelial to mesenchymal transition reflecting vasculopathy with dermal thickening, collagen accumulation, enhanced myofibroblast counts reflecting skin fibrosis. uPAR−/− induces and develops dermal and pulmonary fibrosis (Manetti M et al. Ann Rheum Dis. (2014) 73:1700-1709; Manetti M et al Ann Rheum Dis. (2017) 76:924-934; Schniering J et al., (2019) In Atlas of Ulcers in Systemic Sclerosis. Diagnosis and Management. Matucci-Cerinic M and Denton C P (eds). Springer, Chain, Switzerland, pp. 27-37).
uPAR−/− mice were bred from mating of heterozygotes (uPAR+/−; obtained from Institute for Translational Neurology and Neurology Clinics, University of Munster, Germany). Pups were genotyped and uPAR−/− mice obtained at Mendelian frequency. Two full thickness, excisional cutaneous wounds (6 mm diameter corresponding to an area of 28.3 mm^2) were generated, symmetrically to the dorsum midline. To this end, at the day before surgery, mice were anaesthetized with Isoflurane and their dorsum was shaved using Veet® depilatory cream and clippers. At the next following day, preoperative analgesia was administered at 30 min before surgery consisting of 0.1 mg/kg of Buprenorphine and 5 mg/kg of Ketoprofen. Animals were anesthetized with Isoflurane. Two full thickness wounds (including epidermis, dermis, hypodermis, panniculus carnosus; depth about 500 μm) of 6 mm diameter each were created using a biopsy punch and scissors each with identical, at least 10 mm distance left or right from the dorsum midline. To minimize wound contraction, wounds were splinted using a silicon splint (Grace Bio-Labs silicone wound splints, red with suture sites, outer diameter×inner diameter×thickness 14 mm×7 mm×0.5 mm). Splints were kept in place using six interrupted surgical sutures (6/0 polyamide-Ethylon) and Superglue (ethyl 2-cyanoacrylate glue) (Park S A et al. Wound Repair Regen. (2014) 22(3):368-380; Park S A et al. Wound Repair Regen. (2015) 23(2):251-261).
The cutaneous ulcers and the splint were protected using a plastic cover maintained using a non-woven adhesive dressing (Hypafix® (Smith & Nephew)) and a semiocclusive adhesive transparent dressing (Tegaderm™, (3M™)). Ketoprofen (5 mg/kg) and Buprenorphine (0.05 mg/kg) were administered for 3 days and then Buprenorphine (0.05 mg/kg) as needed. The estimated volume of a cutaneous ulcer was 28.3 mm^2 area×0.5 mm depth=14.15 mm^3 or 14.15 μl. […]

SMILES: CCCOc1ccc(S(=O)(=O)N2CCC(CCO[N+](=O)[O-])CC2)cc1-c1nn2c(CCC)c(/C=N/O)c(C)c2c(=O)[nH]1 [Compound 1, 2-[1-(3-{6-[(1E)-(hydroxyimino)methyl]-5-methyl-4-oxo-7-propyl-3H,4H-pyrrolo[2,1-f][1,2,4]triazin-2-yl}-4-propoxybenzenesulfonyl)piperidin-4-yl]ethyl nitrate]
- acceleration of wound closure versus Vehicle (uPAR−/− mice, based on means of % Wound Closure from day 5 to day 8): about 1 day
- AUEC for % wound closure compared to vehicle (uPAR−/− mice, day 0-7): significant increase
- healing of full thickness excisional cutaneous wounds (conclusion) (uPAR−/− mice, once daily topical, in form of Topical Composition A2): improved
- part of wound closure delay associated with uPAR deficiency restored (uPAR−/− vs uPAR+/+ mice, from AUEC (Table 6)): about half
